Measured values: PMC11289166 (Biochemistry, 2024)
Entries after “also recorded” stand apart in the source; their conditions may differ. Ends that are not written are not given here. * marks the point of attachment. MTSL = nitroxide spin label, CC1(C)C=C(CS*)C(C)(C)N1[O]

Assays:
CRY Asn253Ala/Gln254Ala [1] = target: T1, CRY Asn253Ala/Gln254Ala (Drosophila melanogaster, UniProt O77059, N253A/Q254A); details: DEER; light state and dark-state proxy; compared with WT CRYΔ
CRY Arg237Ala = CRY Arg237Ala (Drosophila melanogaster, UniProt O77059, R237A); type: binding; details: fluorescence polarization; dark and light
Sequence of CRY Arg237Ala (O77059 1-539 R237A): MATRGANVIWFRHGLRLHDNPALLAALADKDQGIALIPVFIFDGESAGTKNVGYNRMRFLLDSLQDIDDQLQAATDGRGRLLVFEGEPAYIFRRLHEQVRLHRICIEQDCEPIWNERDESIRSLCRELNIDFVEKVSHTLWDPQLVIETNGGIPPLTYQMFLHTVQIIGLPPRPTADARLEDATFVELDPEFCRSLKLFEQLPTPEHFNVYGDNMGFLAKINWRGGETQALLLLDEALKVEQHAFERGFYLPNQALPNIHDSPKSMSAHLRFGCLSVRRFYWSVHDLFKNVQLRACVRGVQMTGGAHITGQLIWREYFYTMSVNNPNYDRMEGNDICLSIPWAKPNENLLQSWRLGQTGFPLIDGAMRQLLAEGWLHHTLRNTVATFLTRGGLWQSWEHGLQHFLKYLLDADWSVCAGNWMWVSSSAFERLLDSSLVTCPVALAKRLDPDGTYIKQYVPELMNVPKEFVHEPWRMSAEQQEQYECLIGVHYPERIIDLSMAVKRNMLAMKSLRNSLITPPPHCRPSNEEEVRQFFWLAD

CRYΔ (residues 1-520) = CRYΔ (residues 1-520) (Drosophila melanogaster, UniProt O77059); type: binding; details: fluorescence polarization; dark and light
Sequence of CRYΔ (residues 1-520) (O77059 1-520, stated change not applied): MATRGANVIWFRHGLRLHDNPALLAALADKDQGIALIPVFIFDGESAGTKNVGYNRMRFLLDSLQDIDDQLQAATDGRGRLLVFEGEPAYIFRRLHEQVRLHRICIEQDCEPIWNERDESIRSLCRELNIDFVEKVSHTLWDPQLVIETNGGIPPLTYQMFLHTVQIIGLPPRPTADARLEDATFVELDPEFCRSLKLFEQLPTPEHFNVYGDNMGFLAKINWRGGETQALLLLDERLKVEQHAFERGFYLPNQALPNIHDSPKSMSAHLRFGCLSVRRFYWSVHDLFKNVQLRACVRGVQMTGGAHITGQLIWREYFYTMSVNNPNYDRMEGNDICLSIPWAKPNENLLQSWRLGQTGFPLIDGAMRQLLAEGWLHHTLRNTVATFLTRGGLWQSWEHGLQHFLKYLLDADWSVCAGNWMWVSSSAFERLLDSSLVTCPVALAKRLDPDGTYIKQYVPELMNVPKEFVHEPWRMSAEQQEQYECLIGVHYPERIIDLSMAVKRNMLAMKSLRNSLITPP

[2] = target: CRY Full-Length (residues 1-539) (Drosophila melanogaster, UniProt O77059); type: binding; details: fluorescence polarization; dark and light
Sequence of CRY Full-Length (residues 1-539) (O77059 1-539): as the sequence (O77059 1-539 R237A) above, with A237R counted along it

CRY Asn253Ala/Gln254Ala [3] = target: T1, CRY Asn253Ala/Gln254Ala; type: binding; details: fluorescence polarization; dark and light
CRYΔ = details: ref [20]-[22]; cited from earlier work

T1 sequence (O77059 1-539 N253A/Q254A): as the sequence (O77059 1-539 R237A) above, with A237R, N253A, Q254A counted along it

S-TIMN-SL: S-TIMN spin-labeled with MTSL (MDWLLATPQLYSAFSSLGC(MTSL))
interaction of spin-labeled S-TIMN with Asn253Ala/Gln254Ala (in words) (CRY Asn253Ala/Gln254Ala [1]): considerably different than that observed for WT CRYΔ

MDWLLATPQLYSAFSSLGC [S-TIMN]
binding to Arg237Ala (in words) (CRY Arg237Ala): no detectable binding of S-TIMN in either dark or light; also recorded: does not bind to CRY in either dark or light | binding to CRYΔ (in words) (CRYΔ (residues 1-520)): bound S-TIMN in both dark and light, but with somewhat higher affinity in the light; also recorded: reasonably high affinity in the dark and even tighter affinity in the light; also recorded: more strongly in light than dark | binding to full-length CRY (in words) [2]: bound to full-length CRY (residues 1-539) only in light with an affinity similar to that seen for CRYΔ in light | binding to Asn253Ala/Gln254Ala (in words) (CRY Asn253Ala/Gln254Ala [3]): bound both in dark and light, with stronger binding and a larger fraction of binding in the dark

B1: full-length TIM: Drosophila core oscillator protein Timeless (protein, UniProt P49021 1-1398, looked up)
chain: MDWLLATPQLYSAFSSLGCLEGDTYVVNPNALAILEEINYKLTYEDQTLRTFRRAIGFGQNVRSDLIPLLENAKDDAVLESVIRILVNLTVPVECLFSVDVMYRTDVGRHTIFELNKLLYTSKEAFTEARSTKSVVEYMKHILESDPKLSPHKCDQINNCLLLLRNILHIPETHAHCVMPMMQSMPHGISMQNTILWNLFIQSIDKLLLYLMTCPQRAFWGVTMVQLIALIYKDQHVSTLQKLLSLWFEASLSESSEDNESNTSPPKQGSGDSSPMLTSDPTSDSSDNGSNGRGMGGGMREGTAATLQEVSRKGQEYQNAMARVPADKPDGSEEASDMTGNDSEQPGSPEQSQPAGESMDDGDYEDQRHRQLNEHGEEDEDEDEVEEEEYLQLGPASEPLNLTQQPADKVNNTTNPTSSAPQGCLGNEPFKPPPPLPVRASTSAHAQMQKFNESSYASHVSAVKLGQKSPHAGQLQLTKGKCCPQKRECPSSQSELSDCGYGTQVENQESISTSSNDDDGPQGKPQHQKPPCNTKPRNKPRTIMSPMDKKELRRKKLVKRSKSSLINMKGLVQHTPTDDDISNLLKEFTVDFLLKGYSYLVEELHMQLLSNAKVPIDTSHFFWLVTYFLKFAAQLELDMEHIDTILTYDVLSYLTYEGVSLCEQLELNARQEGSDLKPYLRRMHLVVTAIREFLQAIDTYNKVTHLNEDDKAHLRQLQLQISEMSDLRCLFVLLLRRFNPSIHSKQYLQDLVVTNHILLLILDSSAKLGGCQTIRLSEHITQFATLEVMHYYGILLEDFNNNGEFVNDCIFTMMHHIGGDLGQIGVLFQPIILKTYSRIWEADYELCDDWSDLIEYVIHKFMNTPPKSPLTIPTTSLTEMTKEHNQEHTVCSWSQEEMDTLYWYYVQSKKNNDIVGKIVKLFSNNGNKLKTRISIIQQLLQQDIITLLEYDDLMKFEDAEYQRTLLTTPTSATTESGIEIKECAYGKPSDDVQILLDLIIKENKAQHLLWLQRILIECCFVKLTLRSGLKVPEGDHIMEPVAYHCICKQKSIPVVQWNNEQSTTMLYQPFVLLLHKLGIQLPADAGSIFARIPDYWTPETMYGLAKKLGPLDKLNLKFDASELEDATASSPSRYHHTGPRNSLSSVSSLDVDLGDTEELALIPEVDAAVEKAHAMASTPSPSEIFAVPKTKHCNSIIRYTPDPTPPVPNWLQLVMRSKCNHRTGPSGDPSDCIGSSSTTVDDEGFGKSISAATSQAASTSMSTVNPTTTLSLNMLNTFMGSHNENSSSSGCGGTVSSLSMVALMSTGAAGGGGNTSGLEMDVDASMKSSFERLEVNGSHFSRANNLDQEYSAMVASVYEKEKELNSDNVSLASDLTRMYVSDEDDRLERTEIRVPHYH
modifications: full-length
binding of TIM to CRYΔ (in words) (CRYΔ): binds TIM in both dark and light
